Data on 16 molecules can be found in patent US8481540B2, “Inhibitors of bruton's tyrosine kinase” (Hoffmann-La Roche Inc., priority 2010, dated 2013).

One data set has as its system B cells in human blood. Briefly: Inhibition of B cell activation in whole blood measured by CD69 expression. In kind it is cell-based. To be noted: read-out: Human Whole Blood. The method, boiled down:
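Heparinised human whole blood was preincubated with compound (nine-point, three-fold dilutions) for 30 min at 37 °C. It was then stimulated with 50 μg/ml goat F(ab′)2 anti-human IgM for 20 hours. CD20/CD69 staining, red-cell lysis and flow cytometry gave percent CD69-positive cells, from which IC50 values were calculated.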

[1] abbreviates: CD69-positive, CD20-positive cells after anti-IgM stimulation, human whole blood, 20 hours.

The structures appear in SMILES notation. pIC50: −log10 of the molar value. Like-named read-outs stand apart in the source and are kept apart here.

The term melting point denotes the temperature of the solid-liquid transition. `CCNC(C)(C)c1ccc(Nc2cc(-c3cccc(-n4ncc5cc(C(C)(C)C)cc(F)c5c4=O)c3CO)nn(C)c2=O)nc1` [I-1, 6-tert-butyl-2-(3-{5-[5-(1-ethylamino-1-methyl-ethyl)-pyridin-2-ylamino]-1-methyl-6-oxo-1,6-dihydro-pyridazin-3-yl}-2-hydroxymethyl-phenyl)-8-fluoro-2H-phthalazin-1-one] had a melting point of 229 to 233 °C. In addition, the pIC50 in the data set with B cells in human blood (setting [1]) was 7.72.
Turning to `Cn1nc(-c2cccc(-n3ncc4cc(C(C)(C)C)cc(F)c4c3=O)c2CO)cc(Nc2ccc(S(C)(=O)=O)cn2)c1=O` [I-3, 6-tert-Butyl-8-fluoro-2-[2-hydroxymethyl-3-[5-(5-methanesulfonyl-pyridin-2-ylamino)-1-methyl-6-oxo-1,6-dihydro-pyridazin-3-yl]-phenyl}-2H-phthalazin-1-one], the melting point was in the range of 225 to 230 °C. The pIC50 in the data set with B cells in human blood (Homo sapiens, 20 h) is 7.35.
`COC1CN(Cc2ccc(Nc3cc(-c4cccc(-n5ncc6cc(C(C)(C)C)cc(F)c6c5=O)c4CO)nn(C)c3=O)nc2)C1` [I-4, 6-tert-Butyl-8-fluoro-2-(2-hydroxymethyl-3-{5-[5-(3-methoxy-azetidin-1-ylmethyl)-pyridin-2-ylamino]-1-methyl-6-oxo-1,6-dihydro-pyridazin-3-yl}-phenyl)-2H-phthalazin-1-one]: the melting point lay within 140 to 142 °C. Moreover, the pIC50 in the data set with B cells in human blood (setting [1]) is 6.91.
As for `CN1[C@@H]2CC[C@H]1CN(Cc1ccc(Nc3cc(-c4cccc(-n5ncc6cc(C(C)(C)C)cc(F)c6c5=O)c4CO)nn(C)c3=O)nc1)C2` [I-5, 6-tert-Butyl-8-fluoro-2-(2-hydroxymethyl-3-{1-methyl-5-[5-(8-methyl-3,8-diaza-bicyclo[3.2.1]oct-3-ylmethyl)-pyridin-2-ylamino]-6-oxo-1,6-dihydro-pyridazin-3-yl}-phenyl)-2H-phthalazin-1-one], the melting point lay in the range of 162 to 165 °C. The pIC50 in the data set with B cells in human blood (setting [1]) is 7.60.
For `CN(C)CC(C)(C)Oc1ccc(Nc2cc(-c3cccc(-n4ncc5cc(C(C)(C)C)cc(F)c5c4=O)c3CO)nn(C)c2=O)nc1` [I-6, 6-tert-Butyl-2-(3-{5-[5-(2-dimethylamino-1,1-dimethyl-ethoxy)-pyridin-2-ylamino]-1-methyl-6-oxo-1,6-dihydro-pyridazin-3-yl}-2-hydroxymethyl-phenyl)-8-fluoro-2H-phthalazin-1-one], in that order: 136 to 144 °C and 7.51.
Consider `Cn1nc(-c2cccc(-n3ncc4cc(C(C)(C)C)cc(F)c4c3=O)c2CO)cc(Nc2ccc(CN3CCC3)cn2)c1=O` [I-7, 2-{3-[5-(5-Azetidin-1-ylmethyl-pyridin-2-ylamino)-1-methyl-6-oxo-1,6-dihydro-pyridazin-3-yl]-2-hydroxymethyl-phenyl}-6-tert-butyl-8-fluoro-2H-phthalazin-1-one], for which the melting point is 160 to 163 °C. For the same molecule, the pIC50 in the data set with B cells in human blood (setting [1]) is 7.70.
With `CN(C)Cc1ccc(Nc2cc(-c3cccc(-n4ncc5cc(C(C)(C)C)cc(F)c5c4=O)c3CO)nn(C)c2=O)nc1` [I-8, 6-tert-Butyl-2-{3-[5-(5-dimethylaminomethyl-pyridin-2-ylamino)-1-methyl-6-oxo-1,6-dihydro-pyridazin-3-yl]-2-hydroxymethyl-phenyl}-8-fluoro-2H-phthalazin-1-one], the melting point lay within 170 to 174 °C. Moreover, the pIC50 with B cells in human blood (setting [1]) was 7.70.
Consider `Cn1nc(-c2cccc(-n3ncc4cc(C(C)(C)C)cc(F)c4c3=O)c2CO)cc(Nc2cnc(C(F)(F)F)cn2)c1=O` [I-11, 6-tert-butyl-8-fluoro-2-{2-hydroxymethyl-3-[1-methyl-6-oxo-5-(5-trifluoromethyl-pyrazin-2-ylamino)-1,6-dihydro-pyridazin-3-yl]-phenyl}-2H-phthalazin-1-one], for which the melting point lay within 250 to 254 °C.
With `CN1CCN(c2cnc(Nc3cc(-c4cccc(-n5ncc6cc(C(C)(C)C)cc(F)c6c5=O)c4CO)nn(C)c3=O)cn2)CC1` [I-34, 6-tert-Butyl-8-fluoro-2-{2-hydroxymethyl-3-[1-methyl-5-(4-methyl-3,4,5,6-tetrahydro-2H-[1,2′]bipyrazinyl-5′-ylamino)-6-oxo-1,6-dihydro-pyridazin-3-yl]-phenyl}-2H-phthalazin-1-one], the melting point lay in the range of 235 to 240 °C. Moreover, the pIC50 in the data set with B cells in human blood (setting [1]) is 6.90.
`CN(C)CCOc1cnc(Nc2cc(-c3cccc(-n4ncc5cc(C(C)(C)C)cc(F)c5c4=O)c3CO)nn(C)c2=O)cn1` [I-36, 6-tert-Butyl-2-(3-{5-[5-(2-dimethylamino-ethoxy)-pyrazin-2-ylamino]-1-methyl-6-oxo-1,6-dihydro-pyridazin-3-yl}-2-hydroxymethyl-phenyl)-8-fluoro-2H-phthalazin-1-one] gave a melting point of 185 to 190 °C.
As for `Cn1nc(-c2cccc(-n3ncc4cc(C(C)(C)C)cc(F)c4c3=O)c2CO)cc(Nc2cnc([C@H](O)CO)cn2)c1=O` [I-57, 6-tert-Butyl-2-(3-{5-[5-((S)-1,2-dihydroxy-ethyl)-pyrazin-2-ylamino]-1-methyl-6-oxo-1,6-dihydro-pyridazin-3-yl}-2-hydroxymethyl-phenyl)-8-fluoro-2H-phthalazin-1-one], the melting point lay within 218 to 224 °C.
For the molecule `Cn1nc(-c2cccc(-n3ncc4cc(C(C)(C)C)cc(F)c4c3=O)c2CO)cc(Nc2ccc(CN3CCC(C)(O)CC3)cn2)c1=O` [I-85, 6-tert-Butyl-8-fluoro-2-(2-hydroxymethyl-3-{5-[5-(4-hydroxy-4-methyl-piperidin-1-ylmethyl)-pyridin-2-ylamino]-1-methyl-6-oxo-1,6-dihydro-pyridazin-3-yl}-phenyl)-2H-phthalazin-1-one], the pIC50 in the data set on B cells in human blood (setting [1]) is 6.53.
On the same count and under the same terms, with `CCOC(=O)N1CCN(c2ccc(Nc3cc(-c4cccc(-n5ncc6cc(C(C)(C)C)cc(F)c6c5=O)c4CO)nn(C)c3=O)nc2)CC1` [I-86, 4-(6-{6-[3-(6-tert-Butyl-8-fluoro-1-oxo-1H-phthalazin-2-yl)-2-hydroxymethyl-phenyl]-2-methyl-3-oxo-2,3-dihydro-pyridazin-4-ylamino}-pyridin-3-yl)-piperazine-1-carboxylic acid ethyl ester] the figure was 6.39; with `Cn1nc(-c2cccc(-n3ccc4cc(C(C)(C)CF)cc(F)c4c3=O)c2CO)cc(Nc2ccc(C(=O)N3CCOCC3)cn2)c1=O` [I-87, 8-Fluoro-6-(2-fluoro-1,1-dimethyl-ethyl)-2-(2-hydroxymethyl-3-{1-methyl-5-[5-(morpholine-4-carbonyl)-pyridin-2-ylamino]-6-oxo-1,6-dihydro-pyridazin-3-yl}-phenyl)-2H-isoquinolin-1-one], 6.34; with `CN1C[C@@H]2C[C@H]1CN2c1cnc(Nc2cc(-c3cccc(-n4ncc5cc(C(C)(C)C)cc(F)c5c4=O)c3CO)nn(C)c2=O)cn1` [I-88, 6-tert-Butyl-8-fluoro-2-(2-hydroxymethyl-3-{1-methyl-5-[5((1S,4S)-5-methyl-2,5-diaza-bicyclo[2.2.1]hept-2-yl)-pyrazin-2-ylamino]-6-oxo-1,6-dihydro-pyridazin-3-yl}-phenyl)-2H-phthalazin-1-one], 6.69.
Take `Cn1nc(-c2cccc(-n3ncc4cc(C(C)(C)C)cc(F)c4c3=O)c2CO)cc(Nc2ccc(C3CCN(CC(F)(F)F)CC3)cn2)c1=O` [I-90, 6-tert-butyl-8-fluoro-2-(2-hydroxymethyl-3-{1-methyl-6-oxo-5-[1′-(2,2,2-trifluoro-ethyl)-1′,2′,3′,4′,5′,6′-hexahydro-[3,4′]bipyridinyl-6-ylamino]-1,6-dihydro-pyridazin-3-yl}-phenyl)-2H-phthalazin-1-one]: in the data set on B cells in human blood (setting [1]), the pIC50 is 6.47.
